Patent publication US8846675B2, “N-linked heterocyclic receptor agonists for the treatment of diabetes and metabolic disorders” (Cymabay Therapeutics, Inc., priority 2007, dated 2014)

The compounds below were run against T1, IC-GPCR2 (Homo sapiens, UniProt Q8TDV5) (assay: Stimulation of cAMP in CHO cell line stably expressing IC-GPCR2 (HTRF cAMP dynamic kit)). Conditions: 3 μM compound; relative to maximal activity of 5-Ethyl-2-{4-[4-(4-tetrazol-1-yl-phenoxymethyl)-thiazol-2-yl]-piperidin-1-yl}-pyrimidine (=100%); IC-GPCR2 stably expressing CHO cells, 30 minutes.
T1 construct: expressed in transfected cells
T1 sequence (Q8TDV5 1-335 S309L): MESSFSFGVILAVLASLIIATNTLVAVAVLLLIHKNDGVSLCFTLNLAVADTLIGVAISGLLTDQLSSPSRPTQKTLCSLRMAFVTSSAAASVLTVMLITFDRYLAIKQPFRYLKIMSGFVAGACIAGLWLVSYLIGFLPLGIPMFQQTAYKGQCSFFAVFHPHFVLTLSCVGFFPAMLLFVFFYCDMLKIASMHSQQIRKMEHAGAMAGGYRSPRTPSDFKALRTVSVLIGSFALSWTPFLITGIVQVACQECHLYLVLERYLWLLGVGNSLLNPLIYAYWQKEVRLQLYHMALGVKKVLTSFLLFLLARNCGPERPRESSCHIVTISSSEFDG
Type: cell-based
Procedure, shortened: (§1)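 CHO cells stably expressing IC-GPCR2, with parental CHO as counter-screen, were exposed to compound (0.00003–10 μM) for 30 min in Ham's F12. Intracellular cAMP read by HTRF competitive immunoassay (665/620 nm ratio). Activity at 3 μM expressed as % of maximal signal from a reference agonist.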

% activity at 3 μM [%] | Compound
57.71 | CCc1cnc(N2CCC(n3ccc(COc4ccc(-n5cnnn5)cc4F)n3)CC2)nc1 [Example 113, 5-Ethyl-2-(4-(3-((2-fluoro-4-(1H-tetrazol-1-yl)phenoxy)methyl)-1H-pyrazol-1-yl)piperidin-1-yl)pyrimidine]

These compounds were tested against T2, IC-GPCR2 (Homo sapiens, UniProt Q8TDV5, S309L) in the same assay as above. Conditions: 3 μM compound; IC-GPCR2 stably expressing CHO cells; not included in Table 1.
T2 construct: expressed in transfected cells
T2 sequence (Q8TDV5 1-335 S309L): T1 sequence (Q8TDV5 1-335 S309L)
Type: cell-based
Procedure, shortened: as §1

Compound | activity when tested at 3 μM (in words)
Cc1noc(C)c1S(=O)(=O)N1CCC(n2ncc(COc3ccc(-n4cnnn4)nc3)n2)CC1 [Example 43, 4-(4-(4-((6-(1H-Tetrazol-1-yl)pyridin-3-yloxy)methyl)-2H-1,2,3-triazol-2-yl)piperidin-1-ylsulfonyl)-3,5-dimethylisoxazole] | did not exhibit activity
C[C@H](NC(=O)OC(C)(C)C)C(=O)N1CCC(n2ncc(COc3ccc(-n4cnnn4)nc3)n2)CC1 [Example 53, (S)-tert-Butyl 1-(4-(4-((6-(1H-tetrazol-1-yl)pyridin-3-yloxy)methyl)-2H-1,2,3-triazol-2-yl)piperidin-1-yl)-1-oxopropan-2-ylcarbamate] | did not exhibit activity
Cn1nc(OCc2cnn(C3CCN(c4ncc(Cl)cn4)CC3)n2)cc1C(F)(F)F [Example 97, 5-Chloro-2-{4-[4-(1-methyl-5-trifluoromethyl-1H-pyrazol-3-yloxymethyl)-[1,2,3]-triazol-2-yl]-piperidin-1-yl}-pyrimidine] | did not exhibit activity

Now from value to compound:

activity when tested at 3 μM (in words) | Compound
did not exhibit activity | Cc1nc(C)c(S(=O)(=O)N2CCC(n3ncc(COc4ccc(-n5cnnn5)nc4)n3)CC2)s1 [Example 39, 5-(4-(4-((6-(1H-Tetrazol-1-yl)pyridin-3-yloxy)methyl)-2H-1,2,3-triazol-2-yl)piperidin-1-ylsulfonyl)-2,4-dimethylthiazole]
did not exhibit activity | Cn1cnc(S(=O)(=O)N2CCC(n3ncc(COc4ccc(-n5cnnn5)nc4)n3)CC2)c1 [Example 42, 5-((2-(1-(1-Methyl-1H-imidazol-4-ylsulfonyl)piperidin-4-yl)-2H-1,2,3-triazol-4-yl)methoxy)-2-(1H-tetrazol-1-yl)pyridine]
did not exhibit activity | COC(=O)c1cc(C)nc(N2CCC(n3ncc(COc4ccc(-n5cnnn5)nc4)n3)CC2)n1 [Example 79, Methyl 2-(4-(4-((6-(1H-tetrazol-1-yl)pyridin-3-yloxy)methyl)-2H-1,2,3-triazol-2-yl)piperidin-1-yl)-6-methylpyrimidine-4-carboxylate]
